Entries after “also recorded” stand apart in the source; their conditions may differ. Structures can show the parent of a compound that is named as a salt. Where two headings read alike, the source gives them in different places.
What was measured:
gastric acid secretion [1] = assay: inhibition of secretion of acidic gastric juice in dogs (Pavlov gastric pouch, fed); assay type: in vivo, dog (beagle); settings: for ED50: Canis lupus familiaris, po, read-out: ID50 (dose at which there is obtained a 50% inhibition of the total gastric acid output)
Procedure: The procedure for testing the ability of the compounds of the invention to inhibit the secretion of acidic gastric juice in dogs is as follows: A female pure bred beagle (7-10 kg) having Pavlov gastric pouches is fasted overnight with water ad lib. The animal is orally dosed and thirty minutes later it is fed to induce gastric acid secretions. Gastric acid samples are then collected every 15 minutes. The volume of each sample is measured and aliquots are titrated to neutrality with 0.1N NaOH to determine acid concentration.

H2 histamine receptors = H2 histamine receptors (Cavia porcellus, UniProt P47747); assay: cell-based; design: species or system guinea pig; settings: vs histamine dose-response, 32° C., pH 7.4
Procedure: The guinea pig heart atrium test is carried out as follows:
A guinea pig right atrium is suspended at 1 g. tension (isometric) in a thermostatically controlled (32° C.) tissue bath (10 ml) containing oxygenated (95% O2 ; 5% CO2) Krebs-Haenseleit buffer (pH 7.4). The tissue is allowed to stabilize over 1 hour. Individual contractions are recorded with a force-displacement transducer through a strain gauge coupler. A control dose-response curve to histamine in the above described tissue bath is obtained after which the tissue is washed 3 times and allowed to re-equilibrate to basal rate. The test compound is added to the tissue bath at the desired final concentration. Thirty minutes after addition of the compound, a fresh histamine dose response curve is again obtained. Then the response to histamine in the presence of antagonist is compared to the histamine control response. This procedure is repeated, using fresh tissues, for each concentration of antagonist tested. […] Cimetidine is used as the standard for this test.

gastric acid secretion [2] = assay: gastric secretion in the rat, modified Shay procedure of pylorus ligation; assay type: in vivo; settings: intraduodenal, 4 h, i.d., four hours after ligation, read-out: % Inhibition (of acid output)
Procedure: The procedure for testing gastric secretion in the rat, a modification of the procedure of Shay et al., Gastroenterology, 26, 906-13 (1954) is carried out as follows: Male Charles River rats weighing 200-300 grams are deprived of food but not water for 24 hours prior to use. Water is, however, withheld during the experiment. The rats are weighed, anesthetized, and the pylorus ligated according to the method of Shay et al. Treatment or vehicle control is then administered interduodenally (i.d.). Rats are housed 2/cage and sacrificed with CO2 four hours after ligation. The stomachs are removed, rinsed, and contents emptied into a graduated centrifuge tube. The tubes are centrifuged for 20 minutes at 2,000 RPM and the volume of gastric juice recorded. Any samples obviously contaminated by feces, food or hemolysis are eliminated. An aliquot of each is frozen for later analysis of Na^+, K^+ and Cl^- concentration. The pH is measured and 1 ml. of gastric juice is titrated with 0.1N NaOH to a pH of 7.0-7.4. Titratable acid output is calculated in microequivalents and the percent inhibition of acid output is calculated as follows: [formula]

[3] = limitation noted in patients; cited from earlier work
[4] = orally dosed, fed thirty minutes later
[5] = 30 min after addition, results of three experiments, read-out: pA2 Value (apparent dissociation constant of the H2 antagonist) (converted)

Chain of H2 histamine receptors (P47747 whole entry): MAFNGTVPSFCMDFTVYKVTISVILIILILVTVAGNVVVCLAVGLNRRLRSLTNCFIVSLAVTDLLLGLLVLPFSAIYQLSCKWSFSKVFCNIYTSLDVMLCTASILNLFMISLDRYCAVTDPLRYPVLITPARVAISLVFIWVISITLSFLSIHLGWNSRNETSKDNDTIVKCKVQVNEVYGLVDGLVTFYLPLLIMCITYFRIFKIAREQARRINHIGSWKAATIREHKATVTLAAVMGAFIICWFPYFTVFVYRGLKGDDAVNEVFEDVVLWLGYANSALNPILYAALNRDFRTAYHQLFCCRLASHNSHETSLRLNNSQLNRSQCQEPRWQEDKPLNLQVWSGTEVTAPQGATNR

| Kb (H2 histamine receptors; [5]) [nM] | Structure (SMILES) | ED50 (gastric acid secretion [1]; [4]) [mg/kg] | inhibition in vivo at 4 mg/kg (gastric acid secretion [2]) [%] | inhibition in vivo at 8 mg/kg (gastric acid secretion [2]) [%] | other results |
| --- | --- | --- | --- | --- | --- |
|  | O=S1(=O)N=C(NCCCOc2cccc(CN3CCCCC3)c2)c2cscc21 [Example 41] | 0.25 | 87 | 91 | reduced gastric acid secretions (gastric acid secretion [1]; dose of 1 mg/kg, orally dosed): 82%; Kb (H2 histamine receptors; marked *, result of only one experiment, read-out: KB value): 5.94 nM; inhibition in vivo at 0.5 mg/kg (gastric acid secretion [2]; Dose 0.5 mg/kg): 37%; inhibition in vivo at 1 mg/kg (gastric acid secretion [2]): 84% |
|  | CN/C(=N/CCSCc1nc[nH]c1C)NC#N [cimetidine] |  |  |  | duration of action [3]: short duration of action; side effects [3]: anti-androgenic activity; also recorded: tendency to cause confusional states in elderly patients; ED50 (gastric acid secretion [1]): 6 mg/kg |
| 15.8 | CCCN(CCC)Cc1cccc(OCCCNC2=NS(=O)(=O)c3ccccc32)c1.Cl [Example 18, N-[3-[3-[(dipropylamino)methyl]phenoxy]propyl]-1,2-benzisothiazol-3-amine 1,1-dioxide, hydrochloride] | 1.2 |  | 67 | inhibition in vivo at 16 mg/kg (gastric acid secretion [2]): 89%; inhibition in vivo at 32 mg/kg (gastric acid secretion [2]; Dose 32 mg/kg): 90% |
| 25.1 | O=S1(=O)N=C(NCCCOc2cccc(CN3CCCC3)c2)c2ccccc21 [Example 20, N-[3-[3-(1-pyrrolidinylmethyl)phenoxy]propyl]-1,2-benzisothiazol-3-amine 1 ,1-dioxide, hydrochloride, 1/3 hydrate] | 1.4 |  |  | inhibition in vivo at 2 mg/kg (gastric acid secretion [2]; Dose 2 mg/kg): 50% |
| 5.75 | Cl.O=S1(=O)N=C(NCCCOc2cccc(CN3CCCCCC3)c2)c2ccccc21 [Example 24, N-[3-[3-[(hexahydro-1H-azepin-1-yl)methyl]phenoxy]-propyl]-1,2-benzisothiazol-3-amine 1,1-dioxide, hydrochloride] | 1.2 |  | 50 |  |
| 23.4 | Cl.O=S1(=O)N=C(NCCCOc2ccc(CN3CCCCC3)cc2)c2ccccc21 [Example 38, N-[3-[4-[(1-piperidinyl)methyl]phenoxy]propyl]-1,2-benzisothiazol-3-amine 1,1-dioxide, hydrochloride] | 2 | 52 |  | inhibition in vivo at 1 mg/kg (gastric acid secretion [2]): 34%; inhibition in vivo at 16 mg/kg (gastric acid secretion [2]): 93% |
| 100 | CN(C)Cc1ccc(CSCCNC2=NS(=O)(=O)c3ccccc32)o1 [Example 1, N-[2-[[[5-[(dimethylamino)methyl]2-furanyl]methyl]thio]ethyl]-1,2-benzisothiazol-3-amine 1,1-dioxide] | 0.8 | 79 |  |  |
|  | CNC(=C[N+](=O)[O-])NCCSCc1ccc(CN(C)C)o1 [ranitidine, reference compound] | 2.3 | 43 |  |  |

— patent US4490527A, “Benzo-fused heterocyclic anti-ulcer agents” (American Home Products Corporation, priority 1983, dated 1984)
